Drawing on article PMC6208650, this text covers ring closure, product found and ring closure, conversion by HPLC for 11 compounds.

This data set in a line: on-resin lactamisation, Asp side-chain COOH (C-terminal residue, anchored via Rink amide) + alpha-NH2 of N-terminal Dap(Boc); HATU/DIEA 1.05:2.1 equiv, overnight; then TFA cleavage. As to conditions: NMP, 57.0 mM; for ring closure, product found: scale: 1 = cyclic product is largest ESI-MS signal, 0 = linear; for ring closure, conversion by HPLC: scale: % crude HPLC purity, 320 nm area of tallest peak or peak cluster.

The mark [1] stands for this setting: from CC(C)(C)OC(=O)NC[C@H](N)C(=O)NCC(=O)NCC(=O)N[C@@H](CNC(=O)c1cnc2ccccc2n1)C(=O)N[C@@H](CNC(=O)c1cnc2ccccc2n1)C(=O)NCC(=O)N[C@@H](CC(=O)O)C(N)=O, 22-membered ring.
Where [2] appears, read: from CC(C)(C)OC(=O)NC[C@H](N)C(=O)NCC(=O)NCC(=O)NCC(=O)N[C@@H](CNC(=O)c1cnc2ccccc2n1)C(=O)N[C@@H](CNC(=O)c1cnc2ccccc2n1)C(=O)N[C@@H](CC(=O)O)C(N)=O, 22-membered ring.
The mark [3] stands for this setting: from CC(C)(C)OC(=O)NC[C@H](N)C(=O)N[C@@H](CNC(=O)c1cnc2ccccc2n1)C(=O)N[C@@H](CNC(=O)c1cnc2ccccc2n1)C(=O)NCC(=O)NCC(=O)N[C@@H](CNC(=O)c1cnc2ccccc2n1)C(=O)N[C@@H](CC(=O)O)C(N)=O, 22-membered ring.
[4] abbreviates: from CC(C)(C)OC(=O)NC[C@H](N)C(=O)NCC(=O)N[C@@H](CNC(=O)c1cnc2ccccc2n1)C(=O)N[C@@H](CNC(=O)c1cnc2ccccc2n1)C(=O)NCC(=O)N[C@@H](CNC(=O)c1cnc2ccccc2n1)C(=O)N[C@@H](CC(=O)O)C(N)=O, 22-membered ring.
The mark [5] stands for this setting: from CC(C)(C)OC(=O)NC[C@H](N)C(=O)N[C@@H](CNC(=O)c1cnc2ccccc2n1)C(=O)N[C@@H](CNC(=O)c1cnc2ccccc2n1)C(=O)NCC(=O)NCC(=O)NCC(=O)N[C@@H](CC(=O)O)C(N)=O, 22-membered ring.
The mark [6] stands for this setting: from CC(C)(C)OC(=O)NC[C@H](N)C(=O)N[C@@H](CNC(=O)c1cnc2ccccc2n1)C(=O)N[C@@H](CNC(=O)c1cnc2ccccc2n1)C(=O)NCC(=O)N[C@@H](CNC(=O)c1cnc2ccccc2n1)C(=O)NCC(=O)N[C@@H](CC(=O)O)C(N)=O, 22-membered ring.
[7] abbreviates: from CC(C)(C)OC(=O)NC[C@H](N)C(=O)NCC(=O)N[C@@H](CNC(=O)c1cnc2ccccc2n1)C(=O)NCC(=O)N[C@@H](CNC(=O)c1cnc2ccccc2n1)C(=O)N[C@@H](CNC(=O)c1cnc2ccccc2n1)C(=O)N[C@@H](CC(=O)O)C(N)=O, 22-membered ring.
Setting [8] is: from CC(C)(C)OC(=O)NC[C@H](N)C(=O)NCC(=O)N[C@@H](CNC(=O)c1cnc2ccccc2n1)C(=O)NCC(=O)N[C@@H](CNC(=O)c1cnc2ccccc2n1)C(=O)NCC(=O)N[C@@H](CC(=O)O)C(N)=O, 22-membered ring.
[9] abbreviates: from CC(C)(C)OC(=O)NC[C@H](N)C(=O)N[C@@H](CNC(=O)c1cnc2ccccc2n1)C(=O)NCC(=O)NCC(=O)N[C@@H](CNC(=O)c1cnc2ccccc2n1)C(=O)N[C@@H](CNC(=O)c1cnc2ccccc2n1)C(=O)N[C@@H](CC(=O)O)C(N)=O, 22-membered ring.
[10] abbreviates: from CC(C)(C)OC(=O)NC[C@H](N)C(=O)NCC(=O)N[C@@H](CNC(=O)c1cnc2ccccc2n1)C(=O)NCC(=O)NCC(=O)N[C@@H](CNC(=O)c1cnc2ccccc2n1)C(=O)N[C@@H](CC(=O)O)C(N)=O, 22-membered ring.

With `NC[C@@H]1NC(=O)C[C@@H](C(N)=O)NC(=O)CNC(=O)[C@H](CNC(=O)c2cnc3ccccc3n2)NC(=O)[C@H](CNC(=O)c2cnc3ccccc3n2)NC(=O)CNC(=O)CNC1=O`, under setting [1], the ring closure, product found worked out at 1 and the ring closure, conversion by HPLC was found to be 60. With `NC[C@@H]1NC(=O)C[C@@H](C(N)=O)NC(=O)[C@H](CNC(=O)c2cnc3ccccc3n2)NC(=O)[C@H](CNC(=O)c2cnc3ccccc3n2)NC(=O)CNC(=O)CNC(=O)CNC1=O`, under setting [2], the ring closure, product found amounted to 1 and the ring closure, conversion by HPLC was determined as 75. Turning to `NC[C@@H]1NC(=O)C[C@@H](C(N)=O)NC(=O)[C@H](CNC(=O)c2cnc3ccccc3n2)NC(=O)CNC(=O)CNC(=O)[C@H](CNC(=O)c2cnc3ccccc3n2)NC(=O)[C@H](CNC(=O)c2cnc3ccccc3n2)NC1=O`, under setting [3], the ring closure, product found came out at 1 and the ring closure, conversion by HPLC worked out at 48. On to `NC[C@@H]1NC(=O)C[C@@H](C(N)=O)NC(=O)[C@H](CNC(=O)c2cnc3ccccc3n2)NC(=O)CNC(=O)[C@H](CNC(=O)c2cnc3ccccc3n2)NC(=O)[C@H](CNC(=O)c2cnc3ccccc3n2)NC(=O)CNC1=O`, for which, under setting [4], the ring closure, product found turned out to be 0 and the ring closure, conversion by HPLC was less than 34. Turning to `NC[C@@H]1NC(=O)C[C@@H](C(N)=O)NC(=O)CNC(=O)CNC(=O)CNC(=O)[C@H](CNC(=O)c2cnc3ccccc3n2)NC(=O)[C@H](CNC(=O)c2cnc3ccccc3n2)NC1=O`, under setting [5], the ring closure, product found was found to be 1 and the ring closure, conversion by HPLC was found to be 35.

Take `NC[C@@H]1NC(=O)C[C@@H](C(N)=O)NC(=O)CNC(=O)[C@H](CNC(=O)c2cnc3ccccc3n2)NC(=O)CNC(=O)[C@H](CNC(=O)c2cnc3ccccc3n2)NC(=O)[C@H](CNC(=O)c2cnc3ccccc3n2)NC1=O`: under setting [6], the ring closure, product found turned out to be 1 and the ring closure, conversion by HPLC stood at 49. On to `NC[C@@H]1NC(=O)C[C@@H](C(N)=O)NC(=O)[C@H](CNC(=O)c2cnc3ccccc3n2)NC(=O)[C@H](CNC(=O)c2cnc3ccccc3n2)NC(=O)CNC(=O)[C@H](CNC(=O)c2cnc3ccccc3n2)NC(=O)CNC1=O`, for which, under setting [7], the ring closure, product found was 0 and the ring closure, conversion by HPLC is less than 39. `NC[C@@H]1NC(=O)C[C@@H](C(N)=O)NC(=O)CNC(=O)[C@H](CNC(=O)c2cnc3ccccc3n2)NC(=O)CNC(=O)[C@H](CNC(=O)c2cnc3ccccc3n2)NC(=O)CNC1=O`: under setting [8], the ring closure, product found turned out to be 1 and the ring closure, conversion by HPLC stood at 79.

With `NC[C@@H]1NC(=O)C[C@@H](C(N)=O)NC(=O)[C@H](CNC(=O)c2cnc3ccccc3n2)NC(=O)[C@H](CNC(=O)c2cnc3ccccc3n2)NC(=O)CNC(=O)CNC(=O)[C@H](CNC(=O)c2cnc3ccccc3n2)NC1=O`, under setting [9], the ring closure, product found amounted to 0 and the ring closure, conversion by HPLC is less than 30.

In the case of `NC[C@@H]1NC(=O)C[C@@H](C(N)=O)NC(=O)[C@H](CNC(=O)c2cnc3ccccc3n2)NC(=O)CNC(=O)CNC(=O)[C@H](CNC(=O)c2cnc3ccccc3n2)NC(=O)CNC1=O`, under setting [10], the ring closure, product found turned out to be 1 and the ring closure, conversion by HPLC was determined as 56. As for `NC[C@@H]1NC(=O)C[C@@H](C(N)=O)NC(=O)CNC(=O)[C@H](CNC(=O)c2cnc3ccccc3n2)NC(=O)CNC(=O)[C@H](CNC(=O)c2cnc3ccccc3n2)NC1=O` [H-Dap(Boc)-Dap(Qxc)-Gly-Dap(Qxc)-Gly-Asp(OH)-NH-Rink resin], the ring closure, product found (from CC(C)(C)OC(=O)NC[C@H](N)C(=O)N[C@@H](CNC(=O)c1cnc2ccccc2n1)C(=O)NCC(=O)N[C@@H](CNC(=O)c1cnc2ccccc2n1)C(=O)NCC(=O)N[C@@H](CC(=O)O)C(N)=O, 19-membered ring) came to 1.
